Test [1] deals with SH-SY5Y. The experiment in a line: Impedance-based TCRP of SH-SY5Y cells, mutant ALK (F1174L). The note with it: for IC50: mutant ALK (F1174L), long-term (72 hours post compound treatment) CI; for TCRP (Cell Index response): 10 uM. Type of test: cell-based, human.
Excerpt: (§1) The cell index was normalized at time of compound addition.
The cell index (CI) was normalized at time of compound addition. […] DMSO was served as solvent control.
The cell index was normalized at time of compound addition. DMSO at the same dose was served as solvent control.
(§2) The cell index (CI) was normalized at time of compound addition.
Test [2] has as its system C6. As to the kind of experiment: Impedance-based TCRP of PDGFR addicted C6 glioma cells. Type of test: cell-based, rat. The note with it: for TCRP (Cell Index response): increasing concentrations; for IC50: Rattus norvegicus, read-out: IC50 (TCRP).
Description: as §2
Kinase inhibitors including PDGFR inhibitors at different concentrations in DMSO were added into wells following the incubation period. The cell status was monitored prior to and after the compound addition using xCelligence system (Roche applied sciences). […] The Cell index was normalized against the cell index values at a time point just before compound addition.
IC50 of the PDGFR inhibitor can be derived from the CI versus the corresponding log concentration of the inhibitor.
Test [3] relates to Colo-205. The experiment in a line: Impedance-based TCRP of Colo-205 cells, b-Raf (V600E). The class given is cell-based, human. As to conditions: increasing concentrations.
Description: (A) The impedance-based time-dependent cellular profiles (TCRPs) of colo205 in response to b-Raf inhibitor on xCelligence system (Roche/ACEA). […] The cell index (CI) was normalized at time of the compound addition. At the indicated time point of treatment (arrow), increasing concentrations of b-Raf inhibitor (from 0 to 10 uM) were added to the cells and the cell response was monitored. […] (B) IC50 of b-Raf derived from impedance-based TCRP.
as §2
(§3) Kinase inhibitors including b-Raf inhibitors at different concentrations in DMSO were added into wells following the incubation period. The cell status was monitored prior to and after the compound addition using xCelligence system (Roche applied sciences). […] The Cell index was normalized against the cell index values at a time point just before compound addition.
Test [4] deals with H1993. The experiment in a line: Impedance-based TCRP of Met addicted H1993 cells (xCelligence). The class given is cell-based, human. The note with it: H1993; increasing concentrations.
Description: as §1
Cells were treated with ACEA348 (0-10 uM) for 30 min.
as §2
The time-dependent cell response profiles (TCRP) were monitored prior to and after the compound addition using the xCelligence system (ACEA Biosciences/Roche applied sciences).
The Cell index was normalized against the cell index values at a time point just before compound addition. […] EC50 and IC50 of the Met inhibitor can be derived from the CI versus the corresponding log concentration of the inhibitor.
For test [5], the system named is SK-MEL-28. As to the kind of experiment: Impedance-based TCRP of SK-MEL-28, b-Raf (V600E) addicted melanoma cells. Type of test: cell-based, human.
Description: as §1
(A) The impedance-based time-dependent cellular profiles (TCRPs) of SK-MEL28 in response to b-Raf inhibitor on xCelligence system (Roche/ACEA). […] The cell index (CI) was normalized at time of the compound addition. At the indicated time point of treatment (arrow), increasing concentrations of b-Raf inhibitor (from 0 to 10 uM) were added to the cells and the cell response was monitored. […] (B) EC50 of b-Raf derived from impedance-based TCRP.
as §2
Cell lines. […] The time-dependent cell response profiles (TCRP) were monitored prior to and after the compound addition using the xCelligence system (ACEA Biosciences/Roche applied sciences).
as §3
The test system of test [6] is H1975. The experiment in a line: EGF-stimulated CI increase in H1975 cells. Type of test: cell-based. The note with it: Homo sapiens.
For test [7], the system named is A431. The experiment in a line: Impedance-based TCRP of A431 cells, constitutive EGFR activation. The note with it: for IC50: Homo sapiens, read-out: IC50 (TCRP, constitutive activation). The class given is cell-based.
Description: as §2
A431 cells were seeded into wells of 96 well E-plate devices (Roche applied sciences) with an initial seeding density of 20,000 cells per well and were pre-incubated in incubator with DMEM medium plus 2% FBS over night. […] DMSO at the same dose was served as solvent control. […] The IC50s derived from this experiment evaluate the inhibition of these inhibitors to this basal activation of EGFR (caused by dimerization without EGF stimulation)
In test [8] the test system is A431. As to the kind of experiment: EGF-stimulated CI increase in A431 cells. As to conditions: Homo sapiens. The class given is cell-based.
Description: A431 cells were seeded at 20,000 cells per well of 96-well E-plate (Roche/ACEA) with 2% fetal bovine serum. The cells were continuously monitored using xCelligence system (Roche/ACEA). […] The cell index was normalized at time of EGF addition.
To further evaluate the efficacies of these EFGR inhibitors, we tested the inhibitory effect of these inhibitors on the EGF stimulated response using impedance-based technology (FIG. 15). In this experiment, A431 cells were seeded at 20,000 cells per well of 96-well E-plate (Roche/ACEA) with 2% fetal bovine serum. The cells were continuously monitored using xCelligence system (Roche/ACEA). […] The cell index was normalized at time of EGF addition.
In test [9] the test system is H1975. The experiment in a line: Impedance-based TCRP of H1975 cells, constitutive EGFR activation. The class given is cell-based. As to conditions: for IC50: Homo sapiens, read-out: IC50 (TCRP, constitutive activation).
Description: as §2
H1975 cells were seeded at 3,000 cells per well of 96-well E-plate (Roche/ACEA) in RPMI1640 medium with 1% fetal bovine serum. […] The cell index (CI) was normalized at time of compound addition.
Test [10] concerns the target T1, PDGFRβ (Rattus norvegicus, UniProt Q05030).
T1 construct: endogenous in cells; host or cells: C6 rat glioma cells
The experiment in a line: Western analysis of PDGFR signaling pathway in C6 cells. The class given is cell-based.

Test [11] relates to HCC827. As to the kind of experiment: Impedance-based TCRP of HCC827 cells, mutant EGFR (Del E746_A750). The class given is cell-based.
Description: as §2
Kinase inhibitors including EGFR inhibitors at different concentrations in DMSO were added into wells following the incubation period. The cell status was monitored prior to and after the compound addition using xCelligence system (Roche applied sciences). The Cell index was normalized against the cell index values at a time point just before compound addition.
The test system of test [12] is 10T1/2 tva-H1047R. The experiment in a line: Impedance-based TCRP of 10T1/2 tva-H1047R cells expressing human p110α (H1047R). The note with it: 10T1/2 tva-H1047R; serum starved; from 0 to 10 uM. Type of test: cell-based, mouse.
Description: (§4) Cells were serum starved for 5 hour. The cell index was normalized at time of compound addition. At the indicated time point of treatment, increasing concentrations of PI103 (0-10 uM) was added to the cells and the cell responses were monitored.
as §2
A mouse fibroblast 10T1/2 expressing the cell-surface receptor TVA, which is specific for subgroup-A avian retroviruses was used. […] A549 is a human lung cancer cell line expressing wild-type p110α. T47D and BT20 are human breast cancer cell lines expressing mutant p110α (T47D) and p110α (P539R/H1047R), respectively.
(§5) Then the normal growth medium (10% FBS) was exchanged with medium containing 0% FBS. The cells were incubated for additional 5 hours before compound treatment. A PI3K inhibitor (PI103) at different concentrations in DMSO was added into wells following the incubation period. The cell status was monitored prior to and after the compound addition using xCelligence system (Roche applied sciences). […] Cell index of the cells treated with solvent DMSO control was used as baseline. The Cell index was normalized against the cell index values at a time point just before compound addition.
Test [13] concerns 10T1/2 tva. As to the kind of experiment: Impedance-based TCRP of control cell line 10T1/2 tva. The arrangement: species or system mouse. As to conditions: 10T1/2 tva control cell line; from 0 to 10 uM.
Description: as §4, §2
A mouse fibroblast 10T1/2 expressing the cell-surface receptor TVA, which is specific for subgroup-A avian retroviruses was used.
as §5
In test [14] the test system is RBL-2H3 PDGFRβ. As to the kind of experiment: Impedance response of engineered RBL-2H3 PDGFRβ cells to PDGF stimulation and PDGFR inhibition. Type of test: cell-based, rat. As to conditions: serum starved 2 hour, peak normalized CI response.
Description: RBL-2H3 PDGFRβ cells were seeded at 20,000 cells per well of 96-well E-plate (Roche/ACEA). The cells were continuously monitored using the xCelligence system (Roche/ACEA). […] The cell index (CI) was normalized at time of compound addition. Time zero depicts the time point of treatment. […] The cell index (CI) was normalized at time of compound addition. Time zero depicts the time point of treatment.
Test [15] deals with RBL-2H3. The experiment in a line: Impedance response of parental RBL-2H3 cells. The class given is cell-based, rat. The note with it: RBL-2H3 parental. How it is done:
Cell lines. RBL2H3-PDGFR is engineered rat basophilic cell line that expresses exogenous PDGFRβ. RBL2H3 is the parental cell line.
RBL2H3-PDGFR overexpressing PDGFRβ was constructed by Lenti viral transduction of RBL2H3. Both RBL2H3-PDGFR and RBL2H3 cells were seeded at 20,000 cells per well of 96-well E-plate (Roche/ACEA). The cells were continuously monitored using the xCelligence system (Roche/ACEA).
Cells were serum starved for 2 hour, then stimulated by addition of PDGF BB (0-50 ng/ml). […] Plotting the peak normalized CI response versus the corresponding log concentration allows for calculation of the EC50 (1.07 ng.mL) of PDGF acting on PDGFR in the engineered cell line.
This dose-dependent decease in the CI is specific to PDGFR inhibition.

Where [16] appears, read: NCI-H1975, H1975, inhibitor 1 hour, then EGF 30 ng/ml, Normalized Cell Index at 30 minutes after EGF, estimated, read-out: IC50 (TCRP, ligand stimulated).
[17] abbreviates: C6, Long-term (96 hours post compound treatment) CI.

Where two headings read alike, the source gives them in different places.

T1 sequence (Q05030 32-1097): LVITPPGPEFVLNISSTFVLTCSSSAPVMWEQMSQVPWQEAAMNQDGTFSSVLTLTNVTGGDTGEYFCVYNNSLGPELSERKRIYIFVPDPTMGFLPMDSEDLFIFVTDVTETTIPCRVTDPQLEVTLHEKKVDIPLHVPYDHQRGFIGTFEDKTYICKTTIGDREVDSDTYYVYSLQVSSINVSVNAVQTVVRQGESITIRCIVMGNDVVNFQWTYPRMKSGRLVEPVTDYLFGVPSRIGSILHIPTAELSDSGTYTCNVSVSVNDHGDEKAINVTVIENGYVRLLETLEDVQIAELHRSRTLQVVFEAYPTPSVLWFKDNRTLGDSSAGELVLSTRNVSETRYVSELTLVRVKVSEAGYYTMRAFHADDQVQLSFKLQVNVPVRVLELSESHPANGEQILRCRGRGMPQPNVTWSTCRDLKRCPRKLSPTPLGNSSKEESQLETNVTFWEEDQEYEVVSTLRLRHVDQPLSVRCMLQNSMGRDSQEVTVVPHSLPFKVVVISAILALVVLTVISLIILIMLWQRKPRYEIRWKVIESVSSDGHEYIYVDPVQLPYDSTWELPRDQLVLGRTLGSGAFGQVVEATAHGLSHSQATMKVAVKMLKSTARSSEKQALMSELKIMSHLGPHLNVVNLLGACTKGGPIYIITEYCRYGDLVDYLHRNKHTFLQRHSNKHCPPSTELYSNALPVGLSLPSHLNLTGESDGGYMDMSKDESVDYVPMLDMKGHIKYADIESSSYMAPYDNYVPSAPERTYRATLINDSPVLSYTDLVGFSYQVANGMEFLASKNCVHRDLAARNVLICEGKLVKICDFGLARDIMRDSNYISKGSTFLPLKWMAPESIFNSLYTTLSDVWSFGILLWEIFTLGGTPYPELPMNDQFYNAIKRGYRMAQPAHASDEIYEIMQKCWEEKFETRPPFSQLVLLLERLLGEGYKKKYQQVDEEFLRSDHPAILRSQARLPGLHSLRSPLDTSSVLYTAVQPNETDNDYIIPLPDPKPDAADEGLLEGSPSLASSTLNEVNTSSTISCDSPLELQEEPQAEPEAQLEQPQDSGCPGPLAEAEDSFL

For orientation: IC50 means the concentration at which inhibition is half-maximal. The compound `COc1cc(N2CCC(N3CCN(C)CC3)CC2)ccc1Nc1ncc(Cl)c(Nc2ccccc2S(=O)(=O)C(C)C)n1` [NVP-TAE684] came in with a half-inhibitory concentration (IC50) in test [1] (Homo sapiens) of 10.4 nM.
Regarding `COc1cc2ncnc(Nc3ccc(F)c(Cl)c3)c2cc1OCCCN1CCOCC1` [Gefitinib], the “TCRP (Cell Index response)” value is reported as “did not affect CI changes that are significantly different from the negative control” in [2] (C6); “None of these inhibitors induced a TCRP similar to PF2341006” in test [4]; “did not affect CI changes that are significantly different from the negative control” in test [5] (SK-MEL-28, increasing concentrations); “None trigged a TCRP representative to that trigger by ALK inhibitors” in [1]. The “TCRP (Cell Index response, cell growth)” value in test [3] was “did not inhibit Colo205 cell growth”.
Turning to `C=CC(=O)Nc1cccc(Oc2nc(Nc3ccc(N4CCN(C)CC4)cc3OC)ncc2Cl)c1` [WZ4002], the IC50 in test [6] (setting [16]) was roughly 1250 nM; in test [7] (A-431, A431 (wild-type EGFR), Long-term (72 hours post compound treatment) CI), 4370 nM; in test [8] (A-431, A431, inhibitor 1 hour, then EGF 30 ng/ml, Normalized Cell Index at 30 minutes after EGF, estimated, read-out: IC50 (TCRP, ligand stimulated)) it was roughly 2000 nM; in [9] (NCI-H1975, H1975 (mutant L858R/T790M EGFR), 72 hours post compound treatment) it was 560 nM.
As for `Cc1ccc(NC(=O)c2ccc(CN3CCN(C)CC3)cc2)cc1Nc1nccc(-c2cccnc2)n1` [Imatinib], the “phospho-MAPK (Western)” value in [10] (downstream target of PDGFR) is “down-regulated”. Further, the “PDGFRβ autophosphorylation (Western)” value in test [10] (phospho-PDGFRβ (Y1021)) is on record as “effectively inhibited”.
Regarding `CN(C)C/C=C/C(=O)Nc1cc2c(Nc3ccc(F)c(Cl)c3)ncnc2cc1O[C@H]1CCOC1` [BIBW2992], the IC50 in [6] (NCI-H1975, read-out: IC50 (TCRP, ligand stimulated)) is roughly 200 nM.
Consider `COc1cc2ncnc(Nc3cccc(Cl)c3)c2cc1OC` [AG1478], for which the “TCRP (Cell Index response)” value in test [1] is given as “None trigged a TCRP representative to that trigger by ALK inhibitors”.
With `CCN(CC)CCNC(=O)c1c(C)[nH]c(/C=C2\C(=O)Nc3ccc(F)cc32)c1C` [Sunitinib], the IC50 in [2] (setting [17]) amounted to 42.2 nM.
`Cc1ccc(NC(=O)c2ccc(CN3CCN(C)CC3)cc2)cc1Nc1nc(-c2cccnc2)cs1` [Masitinib]: the “TCRP (Cell Index response)” value is “dose-dependent short-term increase (to a various degree) and long-term decrease in Cell Index” in test [2] (C6); “None of these inhibitors induced a TCRP similar to PF2341006” in test [4]. In test [2] (setting [17]), the IC50 turned out to be 487 nM. Also, the “TCRP (Cell Index response, cell growth)” value in test [11] (HCC827, increasing concentrations) is “did not inhibit HCC827 cell growth”.
Turning to `CNC(=O)c1c(F)cccc1Nc1nc(Nc2cc3c(cc2OC)CCN3C(=O)CN(C)C)nc2[nH]ccc12` [GSK1838705A], in [1], the IC50 was 137 nM.
With `O=c1[nH]c2ccccc2n1C1CCN(Cc2ccc(-c3nc4cc5[nH]cnc5cc4nc3-c3ccccc3)cc2)CC1` [AKT inhibitor VIII], the “TCRP (Cell Index response)” value is “None of these inhibitors induced a TCRP similar to PF2341006” in test [4]; “cell index decreases in both the control cell line and H1047R cell line” in test [12]; “cell index decreases in both the control cell line and H1047R cell line” in test [13].
Consider `C=CC(=O)Nc1cc2c(Nc3ccc(F)c(Cl)c3)ncnc2cc1OCCCN1CCOCC1` [Canertinib], for which the IC50 was roughly 150 nM in test [6] (setting [16]); 357 nM in [7] (A-431, 72 h); less than 27 nM in test [8] (A-431, read-out: IC50 (TCRP, ligand stimulated)); 396 nM in test [9] (NCI-H1975, 72 h). Also, the “TCRP (Cell Index response)” value in test [7] (A431, from 0 to 20 uM) was “dose-dependent short-term and long-term decrease in Cell Index”; in [9] (H1975, from 0 to 20 uM), “dose-dependent short-term and long-term decrease in Cell Index”.
`CS(=O)(=O)CCNCc1ccc(-c2ccc3ncnc(Nc4ccc(OCc5cccc(F)c5)c(Cl)c4)c3c2)o1` [Lapatinib]: the 50% inhibitory concentration (IC50) in test [11] (Homo sapiens, HCC827, 96 h, read-out: IC50 (TCRP)) worked out at 38.8 nM.
For the compound “PDGF: PDGF BB, ligand used to stimulate PDGFRβ”, the “EC50 of PDGF acting on PDGFR” value in test [14] was determined as 1.07 ng·mL. In addition, the “Cell Index response of parental cell line” value in [15] is recorded as “did not show any response”.
In the case of `CNC(=O)c1cc(Oc2ccc(NC(=O)Nc3ccc(Cl)c(C(F)(F)F)c3)cc2)ccn1` [sorafenib], the “TCRP (Cell Index response)” value in test [2] (C6) is “dose-dependent short-term increase (to a various degree) and long-term decrease in Cell Index”; in [5] it was “did not affect CI changes that are significantly different from the negative control”; in [1] it was “None trigged a TCRP representative to that trigger by ALK inhibitors”; in [13] it was “cell index decreases in both the control cell line and H1047R cell line”. In addition, the IC50 in test [2] (C6, 96 h) came to 190 nM.
On to `N#CC(=C(/N)Sc1ccccc1N)/C(C#N)=C(\N)Sc1ccccc1N` [U0126], for which the “TCRP (Cell Index response)” value in [4] is recorded as “None of these inhibitors induced a TCRP similar to PF2341006”; in test [12] it was “did not introduce significant cell index changes in either cell line”; in [13], “did not introduce significant cell index changes in either cell line”.
For the compound `O=C1Nc2ccc(I)cc2/C1=C/c1cc(Br)c(O)c(Br)c1` [GW5074], the “TCRP (Cell Index response)” value was “None of these inhibitors induced a TCRP similar to PF2341006” in test [4]; “cell index decreases in both the control cell line and H1047R cell line” in [12]; “cell index decreases in both the control cell line and H1047R cell line” in test [13].
As for `Oc1ccc(-c2nc(-c3ccncc3)c(-c3ccc(F)cc3)[nH]2)cc1` [SB202190], the entries for the “TCRP (Cell Index response)” value in test [4], in [12] and in test [13] were “None of these inhibitors induced a TCRP similar to PF2341006”, “did not introduce significant cell index changes in either cell line” and “did not introduce significant cell index changes in either cell line”, respectively.
Regarding `COc1ccc(-c2ccc3c(N4CCOCC4)nc(N4C[C@@H](C)O[C@@H](C)C4)nc3n2)cc1CO` [KU0063794], the “TCRP (Cell Index response)” value is given as “None of these inhibitors induced a TCRP similar to PF2341006” in test [4], “triggered 10T1/2-tva-H1047R specific cell index drop” in test [12] and “not present in the control cell line 10T1/2-tva” in test [13].
The corresponding values for `Cn1c(=O)n(-c2ccc(C(C)(C)C#N)cc2)c2c3cc(-c4cnc5ccccc5c4)ccc3ncc21` [BEZ235] are “None of these inhibitors induced a TCRP similar to PF2341006”, “triggered 10T1/2-tva-H1047R specific cell index drop” and “not present in the control cell line 10T1/2-tva”.
